From the supplement of paper PMC10307832 come the findings set out here.

Each structure is given as a SMILES string.

In one assay the test system is NCI-H1650. Put plainly: relative viability (nuclei count vs DMSO), 5 days (fraction); higher = more cells survive. The following applies: first compound 0.253 µM. An outline of the steps: (§1)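 Each reported value is a median over duplicate plates. It expresses relative viability: treated-well nuclei count divided by vehicle-well nuclei count. Lung cancer cell lines in 1536-well plates were dosed by pin tool a day after seeding, alone with one drug or with a fixed anchor-drug dose plus five library-drug doses (not always all listed) in √10 steps, and nuclei were counted after 5 days.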
As to `Oc1nc(-c2ccc(C(F)(F)F)cc2)nc2c1CSCC2` [XAV939] + O=C(c1cc(Cc2n[nH]c(=O)c3ccccc23)ccc1F)N1CCN(C(=O)C2CC2)CC1 [Olaparib] (partner 8 µM), the relative viability is 0.633.

`Oc1nc(-c2ccc(C(F)(F)F)cc2)nc2c1CSCC2` [XAV939] + CC(=O)c1c(C)c2cnc(Nc3ccc(N4CCNCC4)cn3)nc2n(C2CCCC2)c1=O [Palbociclib] (partner 0.5 µM) returned a relative viability of 0.297.

`C=C1C(=O)O[C@@H](CCCCCCCC)[C@@H]1C(=O)O` [C-75] + CC(=O)c1c(C)c2cnc(Nc3ccc(N4CCNCC4)cn3)nc2n(C2CCCC2)c1=O [Palbociclib] (partner 0.5 µM): the relative viability was determined as 0.414.

On to `C=C1C(=O)O[C@@H](CCCCCCCC)[C@@H]1C(=O)O` [C-75] + Nc1ncn([C@H]2C[C@H](O)[C@@H](CO)O2)c(=O)n1 [Decitabine] (partner 2 µM), for which the relative viability turned out to be 0.384.

The same assay, now with this note: first compound 0.8 µM.
`Oc1nc(-c2ccc(C(F)(F)F)cc2)nc2c1CSCC2` [XAV939] + O=C(CCCCCCC(=O)Nc1ccccc1)NO [Vorinostat] (partner 1 µM) gave a relative viability of 0.391.

`Oc1nc(-c2ccc(C(F)(F)F)cc2)nc2c1CSCC2` [XAV939] + O=C(c1cc(Cc2n[nH]c(=O)c3ccccc23)ccc1F)N1CCN(C(=O)C2CC2)CC1 [Olaparib] (partner 8 µM) came in with a relative viability of 0.749.

`Oc1nc(-c2ccc(C(F)(F)F)cc2)nc2c1CSCC2` [XAV939] + CC(=O)c1c(C)c2cnc(Nc3ccc(N4CCNCC4)cn3)nc2n(C2CCCC2)c1=O [Palbociclib] (partner 0.5 µM) gave a relative viability of 0.299.

On to `C=C1C(=O)O[C@@H](CCCCCCCC)[C@@H]1C(=O)O` [C-75] + CC(=O)c1c(C)c2cnc(Nc3ccc(N4CCNCC4)cn3)nc2n(C2CCCC2)c1=O [Palbociclib] (partner 0.5 µM), for which the relative viability stood at 0.342.

The molecule `C=C1C(=O)O[C@@H](CCCCCCCC)[C@@H]1C(=O)O` [C-75] + Nc1ncn([C@H]2C[C@H](O)[C@@H](CO)O2)c(=O)n1 [Decitabine] (partner 2 µM) yielded a relative viability of 0.453.

Still in this assay, the particulars now being: first compound 2.53 µM.
Turning to `Oc1nc(-c2ccc(C(F)(F)F)cc2)nc2c1CSCC2` [XAV939] + O=C(CCCCCCC(=O)Nc1ccccc1)NO [Vorinostat] (partner 1 µM), the relative viability came to 0.525.

For `Oc1nc(-c2ccc(C(F)(F)F)cc2)nc2c1CSCC2` [XAV939] + O=C(c1cc(Cc2n[nH]c(=O)c3ccccc23)ccc1F)N1CCN(C(=O)C2CC2)CC1 [Olaparib] (partner 8 µM), the relative viability was 0.61.

In turn, `Oc1nc(-c2ccc(C(F)(F)F)cc2)nc2c1CSCC2` [XAV939] + CC(=O)c1c(C)c2cnc(Nc3ccc(N4CCNCC4)cn3)nc2n(C2CCCC2)c1=O [Palbociclib] (partner 0.5 µM) displayed a relative viability of 0.234.

Staying with this assay, now noted: first compound 8 µM.
Molecule `C=C1C(=O)O[C@@H](CCCCCCCC)[C@@H]1C(=O)O` [C-75] + CC(=O)c1c(C)c2cnc(Nc3ccc(N4CCNCC4)cn3)nc2n(C2CCCC2)c1=O [Palbociclib] (partner 0.5 µM) returned a relative viability of 0.38.

Consider `C=C1C(=O)O[C@@H](CCCCCCCC)[C@@H]1C(=O)O` [C-75] + Nc1ncn([C@H]2C[C@H](O)[C@@H](CO)O2)c(=O)n1 [Decitabine] (partner 2 µM), for which the relative viability worked out at 0.387.

The test system of another assay is NCI-H1793. The assay is described as above. The following applies: first compound 0.08 µM. An outline of the steps: as §1
`Oc1nc(-c2ccc(C(F)(F)F)cc2)nc2c1CSCC2` [XAV939] + O=C(CCCCCCC(=O)Nc1ccccc1)NO [Vorinostat] (partner 1 µM) showed a relative viability of 0.952.

Take `Oc1nc(-c2ccc(C(F)(F)F)cc2)nc2c1CSCC2` [XAV939] + O=C(c1cc(Cc2n[nH]c(=O)c3ccccc23)ccc1F)N1CCN(C(=O)C2CC2)CC1 [Olaparib] (partner 8 µM): the relative viability was determined as 1.15.

The molecule `Oc1nc(-c2ccc(C(F)(F)F)cc2)nc2c1CSCC2` [XAV939] + CC(=O)c1c(C)c2cnc(Nc3ccc(N4CCNCC4)cn3)nc2n(C2CCCC2)c1=O [Palbociclib] (partner 0.5 µM) showed a relative viability of 0.353.

On to `C=C1C(=O)O[C@@H](CCCCCCCC)[C@@H]1C(=O)O` [C-75] + CC(=O)c1c(C)c2cnc(Nc3ccc(N4CCNCC4)cn3)nc2n(C2CCCC2)c1=O [Palbociclib] (partner 0.5 µM), for which the relative viability is 0.278.

The molecule `C=C1C(=O)O[C@@H](CCCCCCCC)[C@@H]1C(=O)O` [C-75] + Nc1ncn([C@H]2C[C@H](O)[C@@H](CO)O2)c(=O)n1 [Decitabine] (partner 2 µM) showed a relative viability of 0.485.

The assay is the same for the next values; noted with them: first compound 0.253 µM.
Regarding `Oc1nc(-c2ccc(C(F)(F)F)cc2)nc2c1CSCC2` [XAV939] + O=C(CCCCCCC(=O)Nc1ccccc1)NO [Vorinostat] (partner 1 µM), the relative viability worked out at 0.573.

`Oc1nc(-c2ccc(C(F)(F)F)cc2)nc2c1CSCC2` [XAV939] + O=C(c1cc(Cc2n[nH]c(=O)c3ccccc23)ccc1F)N1CCN(C(=O)C2CC2)CC1 [Olaparib] (partner 8 µM) showed a relative viability of 0.707.

`Oc1nc(-c2ccc(C(F)(F)F)cc2)nc2c1CSCC2` [XAV939] + CC(=O)c1c(C)c2cnc(Nc3ccc(N4CCNCC4)cn3)nc2n(C2CCCC2)c1=O [Palbociclib] (partner 0.5 µM) registered a relative viability of 0.317.

Consider `C=C1C(=O)O[C@@H](CCCCCCCC)[C@@H]1C(=O)O` [C-75] + CC(=O)c1c(C)c2cnc(Nc3ccc(N4CCNCC4)cn3)nc2n(C2CCCC2)c1=O [Palbociclib] (partner 0.5 µM), for which the relative viability came out at 0.311.

`C=C1C(=O)O[C@@H](CCCCCCCC)[C@@H]1C(=O)O` [C-75] + Nc1ncn([C@H]2C[C@H](O)[C@@H](CO)O2)c(=O)n1 [Decitabine] (partner 2 µM) came in with a relative viability of 0.571.

Still in this assay, the particulars now being: first compound 0.8 µM.
As to `Oc1nc(-c2ccc(C(F)(F)F)cc2)nc2c1CSCC2` [XAV939] + O=C(CCCCCCC(=O)Nc1ccccc1)NO [Vorinostat] (partner 1 µM), the relative viability turned out to be 0.937.

Consider `Oc1nc(-c2ccc(C(F)(F)F)cc2)nc2c1CSCC2` [XAV939] + O=C(c1cc(Cc2n[nH]c(=O)c3ccccc23)ccc1F)N1CCN(C(=O)C2CC2)CC1 [Olaparib] (partner 8 µM), for which the relative viability is 0.916.

As to `Oc1nc(-c2ccc(C(F)(F)F)cc2)nc2c1CSCC2` [XAV939] + CC(=O)c1c(C)c2cnc(Nc3ccc(N4CCNCC4)cn3)nc2n(C2CCCC2)c1=O [Palbociclib] (partner 0.5 µM), the relative viability was determined as 0.307.

Still in this assay, the particulars now being: first compound 2.53 µM.
With `Oc1nc(-c2ccc(C(F)(F)F)cc2)nc2c1CSCC2` [XAV939] + O=C(CCCCCCC(=O)Nc1ccccc1)NO [Vorinostat] (partner 1 µM), the relative viability amounted to 0.733.

In turn, `Oc1nc(-c2ccc(C(F)(F)F)cc2)nc2c1CSCC2` [XAV939] + O=C(c1cc(Cc2n[nH]c(=O)c3ccccc23)ccc1F)N1CCN(C(=O)C2CC2)CC1 [Olaparib] (partner 8 µM) displayed a relative viability of 0.646.

As for `Oc1nc(-c2ccc(C(F)(F)F)cc2)nc2c1CSCC2` [XAV939] + CC(=O)c1c(C)c2cnc(Nc3ccc(N4CCNCC4)cn3)nc2n(C2CCCC2)c1=O [Palbociclib] (partner 0.5 µM), the relative viability was 0.281.
